In US20030065035A1, “Novel stilbene derivative crystal and method for producing the same” (AJINOMOTO CO. INC, priority 2000, published 2003):

Legend:
[1] = Water adsorption isotherm (water adsorption level, BELSORP-18 analyzer); type: physicochemical; details: constant temperature of 25° C.; crystal dried overnight in vacuum at 60° C.; results in FIGS. 3 and 4; hydrochloride
Procedure: Preparation of Water Adsorption Isotherm (Water Adsorption Constant Temperature Line):
After the Type IV crystal recovered above was dried overnight in vacuum at 60° C., the water adsorption level of the crystal was measured at a constant temperature of 25° C. by a fully automatic water adsorption analyzer (BELSORP-18: Nippon Bell K.K.) (see Mitsuiki et al., J. Agric. Food Chem., vol.46, No. 9, pages 3528-3534 (1998)).
The water adsorption level of the Type I crystal was also measured in the same manner as above.

[2] = X ray powder diffraction pattern of the crystal under humidity (crystal structure stability); type: physicochemical; details: relative humidity of 80% or less

| SMILES | water (water vapor) adsorption level versus relative humidity [1] | change of X ray powder diffraction pattern / crystal structure [2] |
| --- | --- | --- |
| COc1ccc(/C=C\c2cc(OC)c(OC)c(OC)c2)cc1NC(=O)[C@@H](N)CO.Cl [Type IV crystal, (Z)-N-[2-methoxy-5-[2-(3,4,5-trimethoxyphenyl)vinyl]phenyl]-L-serinamide hydrochloride] | adsorbed much less water up to around a relative humidity of 80% | did not change |
| COc1ccc(/C=C\c2cc(OC)c(OC)c(OC)c2)cc1NC(=O)[C@@H](N)CO.Cl [Type I crystal, (Z)-N-[2-methoxy-5-[2-(3,4,5-trimethoxyphenyl)vinyl]phenyl]-L-serinamide hydrochloride, reference compound] | adsorbed water in a degree roughly proportional to relative humidity | – |
